Assay results from patent US20150336996A1, “MANGANESE-BASED MAGNETIC RESONANCE CONTRAST AGENTS” (THE GENERAL HOSPITAL CORPORATION, priority 2013, published 2015).
Blank lines part the entries; values can stand above or below the compound they belong to.

Key:
Assay type in all cases: physicochemical
[1] = T1 relaxivity (r1) by inversion recovery on Bruker mq60 Minispec, 1.4 T, 37° C., TRIS buffer pH 7.4; settings: for r1 (relaxivity of manganese complexes): pH 7.4, 37° C., 1.4 Tesla
Experimental: (§1) Liquid chromatography-electrospray mass spectrometry (LC-MS) was performed using an Agilent 1100 Series apparatus with an LC/MSD trap and Daly conversion dynode detector with UV detection at 220, 254 and 280 nm. The methods used on this system are as follows: (a) Luna C18 column (100×2 mm); eluent A: H2O/0.1% formic acid, B: MeCN/0.1% formic acid; gradient: 5% B to 95% B over 9 minutes; flow rate 0.8 mL/min (used for characterization of organic compounds), and (b) Kromasil C18 column (250×4.6 mm); eluent C: 95% MeCN/5% 10 mM ammonium acetate, D: 10 mM ammonium acetate; gradient 5% C to 8% C over 14 minutes; flow rate 0.8 ml/min (used for characterization of manganese complexes). Reversed-phase semipreparative purification was performed on a Rainin Dynamax HPLC system with UV detection at 254 nm using a Polaris C18 column. The method used for purification is as follows: The mobile phase A was 50 mM ammonium acetate buffer, pH 6.5 and mobile phase B was a mixture of 5% 50 mM ammonium acetate buffer, pH 6.5/95% MeCN. Starting from 5% B, the fraction of B increased to 8% over 23 minutes. The column was washed with 100% B for 2 minutes and then ramped to 5% B. The system was re-equilibrated at 5% B for 3 minutes. Relaxivity measurements were performed on a Bruker mq60 Minispec at 1.4 T and 37° C. Manganese concentrations were determined using an Agilent 7500a ICP-MS system. All samples were diluted with 0.1% Triton X-100 in 5% nitric acid containing 20 ppb of Lu (as internal standard). The ratio of Mn (54.94)/Lu(174.97) was used to quantify the manganese concentration. A linear calibration curve ranging from 0.1 ppb to 200 ppb was generated daily for the quantification. UV-Vis spectra were recorded on a SpectraMax M2 spectrophotometer using quartz cuvette with a 1 cm path length. Cyclic voltammetry of Mn^IIHBET, Mn^IIEDTA and Mn^IIIHBET was recorded using a Nuvant EZstat pro potentiostat in TRIS buffer (pH=7.4), containing 0.5M KNO3 as supporting electrolyte, at 100 mVs-1 scan rate. Glassy carbon was used as the working electrode, Ag/AgCl served as the reference electrode and Pt wire was used as the auxiliary electrode. The K4FeCN6/K3FeCN6 couple was used as the internal standard.
T1 was measured with an inversion recovery pulse sequence taking 10 inversion times. Relaxivity was determined from the slope of a plot of 1/T1 vs. concentration of in TRIS buffer, pH=7.4 at 37° C. The concentration of manganese in each stock solution was determined using ICP-MS.
All chemicals and solvents were purchased commercially and used without further purification. NMR spectra were recorded on either a 500 MHz or 400 MHz Varian spectrometers. Chemical shifts are reported in δ (ppm). For ^1H and ^13C NMR spectra, the residual solvent peaks were used as internal reference, except for the ^13C NMR of the ligand where tertiary-butanol was used as the internal reference. Liquid chromatography-electrospray mass spectrometry (LC-MS) was performed using an Agilent 1100 Series apparatus with an LC/MSD trap and Daly conversion dynode detector with UV detection at 220, 254 and 280 nm. The methods used on this system are as follows: (a) Luna C18 column (100×2 mm); eluent A: H2O/0.1% formic acid, B: MeCN/0.1% formic acid; gradient: 5% B to 95% B over 9 minutes; flow rate 0.8 mL/min (used for characterization of organic compounds), and (b) Kromasil C18 column (250×4.6 mm); eluent C: 95% MeCN/5% 10 mM ammonium acetate, D: 10 mM ammonium acetate; gradient 5% C to 8% C over 14 minutes; flow rate 0.8 ml/min (used for characterization of manganese complexes). Reversed-phase semipreparative purification was performed on the Rainin Dynamax HPLC system with UV detection at 254 nm using a Polaris C18 column. The method used for purification is as follows: The mobile phase A was 50 mM ammonium acetate buffer, pH 6.5 and mobile phase B was a mixture of 5% 50 mM ammonium acetate buffer, pH 6.5/95% MeCN. Starting from 5% B, the fraction of B increased to 8% over 23 minutes. […]

[2] = UV spectrum as a function of pH (phenol deprotonation pKa); settings: fit of UV absorbance vs pH
Experimental: To probe the speciation of the manganese complexes in solution, pH titrations of 1:1 Mn^2+:ligand were performed using a 1 N NaOH under N2 atmosphere (FIG. 21).
To determine the species that exists in these two pH ranges the UV spectrum as a function of pH was monitored (see FIGS. 22-24).

[3] = Cyclic voltammetry of the Mn(III)/Mn(II) redox couple; settings: for Half-cell potential vs. normal hydrogen electrode (NHE): pH 7.4, vs. NHE
Experimental: Potentials are vs. K4Fe(CN)6/K3Fe(CN)6; and in (b), a Cottrell plot of the Mn^2+/Mn^3+ couple—ia, (decreasing line) and ic (increasing line) vs. √v, where v=scan rate.
as §1

[4] = Kinetics of reduction of Mn^III-HBET by glutathione; settings: 37° C., pH 7.4; first-order in both [GSH] and [Mn^III-HBET]
Experimental: A series of kinetic experiments were conducted at 37° C. (pH 7.4) to determine the empirical rate law for the reduction of Mn^III-HBET by glutathione. […] This feature allowed us to easily monitor the reduction of Mn^III-HBET over time. We measured initial reaction rates at three different glutathione concentrations (5 mM, 10 mM and 20 mM). For each glutathione concentration, the reaction was performed at four different initial concentrations of M^III-HBET (0.3 mM, 0.4 mM, 0.5 mM and 0.6 mM). Based on these experiments, we determined that the reaction was first-order in both [GSH] and [Mn^III-HBET] with an overall second-order rate constant of (3.8±0.3)×10^−1 M^−1 s^−1.
This series of kinetic experiments were conducted at 37° C. (pH 7.4) to determine the empirical rate law for the reduction of Mn^III-HBET by glutathione. […] Initial reaction rates were measured at a three different glutathione concentrations (5 mM, 10 mM and 20 mM). […]
Here, the observed rate constant (kobs) is simply the product of the actual rate constant (k) and [GSH], t is time, and the subscripts ‘t’ and ‘o’ refer to the concentration at time T or the initial concentration, respectively. […] Based on these experiments, we determined that the reaction was first-order in both [GSH] and [Mn^III-HBET] with an overall second-order rate constant of (3.8±0.3)×10^−1 M^−1 s^−1.

[5] = Stability of manganese complexes in buffers
Experimental: The stability of the manganese complexes were measured in different buffers using concentrations similar to those found in the blood plasma (1 mM phosphate buffer, 25 mM sodium bicarbonate buffer and 0.1 mM citrate buffer). A solution, 0.5 mM, of the manganese complex was incubated in the respective buffers at 37° C. (pH=7.4) and the species were then quantified on the LC-MS using the method as described earlier. The manganese complexes (0.5 mM) were also treated with EDTA (0.5 mM) in TRIS buffer (pH=7.4) and incubated at 37° C. for 1 hour. The species were then quantified on the LC-MS using the method as described earlier.

[6] = Relaxivity at different field strengths in pH 7.4 HEPES buffer; settings: 37° C.
Experimental: The relaxivities of the compounds for Formulas (XI) and (XII) were determined at different field strengths at 37° C. in pH 7.4 HEPES buffer. The relaxivity was obtained from the slope of a plot of 1/T1 vs. [Mn] for different Mn concentrations. Since Formula (XI) contains 6 Mn per molecule, the ionic (per Mn) and molecular (per molecule) relaxivities are given below.

[7] = Stability of solutions at room temperature
Experimental: 40 binds Mn^II in a 1:1 ratio. This complex was prepared and characterized in situ. Mn^II was carefully titrated to 40 and Mn:40 stoichiometry was monitored by LC-MS or T2-relaxometry as describe above. […] 433.1.

half-cell potentials (Mn^II/Mn^III) ([3]; irreversible oxidation / quasi-reversible reduction peaks, TRIS buffer pH 7.4): 0.016 V
Compound: O=C([O-])CN(CCN(CC(=O)[O-])Cc1ccccc1[O-])Cc1ccccc1[O-].[Mn+3] [Mn^III-HBED, reference compound]

Relaxivity r1 at 0.47T (per Mn) ([6]; 0.47T, ionic (per Mn)): 3.60 mM⁻¹ s⁻¹
Relaxivity r1 at 1.4T (per Mn) ([6]; 1.4T, ionic (per Mn)): 2.80 mM⁻¹ s⁻¹
Relaxivity r1 at 9.4T (per Mn) ([6]; 9.4T, ionic (per Mn)): 3.65 mM⁻¹ s⁻¹
Relaxivity r1 at 11.7T (per Mn) ([6]; 11.7T, ionic (per Mn)): 3.05 mM⁻¹ s⁻¹
Compound: Na[Mn(TyOH-EDTA)] [Compound 52]

Relaxivity r1 at 0.47T (per Mn) ([6]; 0.47T, ionic (per Mn)): 9.07 mM⁻¹ s⁻¹
Relaxivity r1 at 0.47T per molecule ([6]; 0.47T, molecular (per molecule, 6 Mn)): 54.4 mM⁻¹ s⁻¹
Relaxivity r1 at 1.4T (per Mn) ([6]; 1.4T, ionic (per Mn)): 9.28 mM⁻¹ s⁻¹
Relaxivity r1 at 1.4T per molecule ([6]; 1.4T, molecular (per molecule, 6 Mn)): 55.7 mM⁻¹ s⁻¹
Relaxivity r1 at 4.7T (per Mn) ([6]; 4.7T, ionic (per Mn)): 6.54 mM⁻¹ s⁻¹
Relaxivity r1 at 4.7T per molecule ([6]; 4.7T, molecular (per molecule, 6 Mn)): 39.2 mM⁻¹ s⁻¹
Relaxivity r1 at 9.4T (per Mn) ([6]; 9.4T, ionic (per Mn)): 4.94 mM⁻¹ s⁻¹
Relaxivity r1 at 9.4T per molecule ([6]; 9.4T, molecular (per molecule, 6 Mn)): 29.6 mM⁻¹ s⁻¹
Relaxivity r1 at 11.7T (per Mn) ([6]; 11.7T, ionic (per Mn)): 3.57 mM⁻¹ s⁻¹
Relaxivity r1 at 11.7T per molecule ([6]; 11.7T, molecular (per molecule, 6 Mn)): 21.4 mM⁻¹ s⁻¹
Compound: Mn6[N3P3-(TyOH-EDTA)6] [Compound 55]

Half-cell potential vs. normal hydrogen electrode (NHE) [3]: 488 mV
Compound: O=C([O-])CN(CC(=O)[O-])C1CCCCC1N(CC(=O)[O-])Cc1cc([N+](=O)[O-])ccc1[O-].[Mn+3].[Na+] (racemic) [Compound 31, Na[Mn^IIIcycHBET-NO2]]

Relaxivities r1 at 1.41T ([1]; 1.41T, 37° C., pH 7.4 Tris buffer): 2.50 mM⁻¹ s⁻¹
stability of solutions [7]: indefinitely stable
Compound: [Mn(CyP3A)] [Compound 41]

Continued, compound first:

Compound: O=C([O-])CN(CCN(CC(=O)[O-])Cc1cc([N+](=O)[O-])ccc1[O-])CC(=O)[O-].[Mn+2].[Na+].[Na+] [Compound 13, Na2[Mn^IIHBET-NO2]]
r1 (relaxivity of manganese complexes) [1]: 2.28 mM⁻¹ s⁻¹
pKa for ionization of the phenol [2]: 4.84

Compound: O=C([O-])CN(CC(=O)[O-])C1CCCCC1N(CC(=O)[O-])Cc1cc([N+](=O)[O-])ccc1[O-].[Mn+2].[Na+].[Na+] (racemic) [Compound 30, Na2[Mn^IIcycHBET-NO2)]]
r1 (relaxivity of manganese complexes) [1]: 2.30 mM⁻¹ s⁻¹

Compound: COc1ccc([O-])c(CN(CCN(CC(=O)[O-])CC(=O)[O-])CC(=O)[O-])c1.[Mn+2].[Na+].[Na+] [Compound 9, Na2[Mn^IIHBET-OMe]]
r1 (relaxivity of manganese complexes) [1]: 3.11 mM⁻¹ s⁻¹
Half-cell potential vs. normal hydrogen electrode (NHE) [3]: 344 mV
pKa for ionization of the phenol [2]: 7.91

Compound: O=C([O-])CN(CCN(CC(=O)[O-])Cc1cc([N+](=O)[O-])ccc1[O-])CC(=O)[O-].[Mn+3].[Na+] [Compound 14, Na[Mn^IIIHBET-NO2]]
r1 (relaxivity of manganese complexes) [1]: 0.34 mM⁻¹ s⁻¹
Half-cell potential vs. normal hydrogen electrode (NHE) [3]: 476 mV

Compound: O=C([O-])CN(CCN(CC(=O)[O-])Cc1ccccc1[O-])CC(=O)[O-].[Mn+3].[Na+] [Compound 5, Na[Mn^IIIHBET]]
T1 relaxivities ([1]; 1.4 T, Tris buffered saline pH 7.4, 37° C.): 1.05 mM⁻¹ s⁻¹
r1 (relaxivity of manganese complexes) [1]: 1.05 mM⁻¹ s⁻¹
overall second-order rate constant of reduction by glutathione [4]: (3.8±0.3)×10^−1 M^−1 s^−1
stability in phosphate and carbonate buffers [5]: stable

Compound: O=C([O-])CN(CC(=O)[O-])C1CCCCC1N(CC(=O)[O-])Cc1ccccc1[O-].[Mn+2].[Na+].[Na+] (racemic) [Compound 20, Na2[Mn^IIcycHBET]]
r1 (relaxivity of manganese complexes) [1]: 3.26 mM⁻¹ s⁻¹
pKa for ionization of the phenol [2]: 7.95

Compound: O=C([O-])CN(CC(=O)[O-])C1CCCCC1N(CC(=O)[O-])Cc1ccccc1[O-].[Mn+3].[Na+] (racemic) [Compound 21, Na[Mn^IIIcycHBET]]
r1 (relaxivity of manganese complexes) [1]: 1.56 mM⁻¹ s⁻¹
Half-cell potential vs. normal hydrogen electrode (NHE) [3]: 365 mV
